Reference: US20110130374A1, “Small Pyrimidine Derivatives and Methods of Use Thereof” (BIOSEARCH(2007) LTD., priority 2009, published 2011)

Tests used:
[1] = system: B16 F10.9 (melanoma-mouse) cells; experiment: Transwell cell migration assay, B16 F10.9; format: cell-based
Excerpt: (§1) A375 (melanoma) (CRL-1619, ATCC, Manassas, Va., USA), A431 (melanoma) (CRL-2592, ATCC, Manassas, Va., USA), A2058 (melanoma) (CRL-11147, ATCC, Manassas, Va., USA), MDA-MB-231 (breast) (HTB-26, ATCC, Manassas, Va., USA), LS175T (colon) (ATCC, Manassas, Va., USA), HT29 (colon) (HTB-38, ATCC, Manassas, Va., USA), PC3 (prostate) (CRL-1435, ATCC, Manassas, Va., USA), Panc03.27 (pancreatic) (ATCC, Manassas, Va., USA), 4T1 (breast-mouse) (CRL-2539, ATCC, Manassas. Va., USA), D122 (lung-mouse) (the Weizmann Institute of Science), D122-luc (lung-mouse) (the Weizmann Institute of Science), and B16 F10.9 (melanoma-mouse) cells (Caliper Life Sciences, Hopkinton Mass.), were grown in RPMI medium supplemented with 10% FBS. HUVEC cells were grown in Endothelial Cell Growth Medium 2 and THP1 cells were grown in RPMI medium supplemented with 10% FBS, 2 mM L-Glutamine, 1.5 g/L sodium bicarbonate, 10 mM Hepes, 1 mM sodium pyruvate, 4.5 g/L glucose and 0.05 mM 2-mercaptoethanol. The cells were starved for 24 hours in medium without FBS. […] Cells that migrated to the lower side of the membrane were stained with Calcein-AM (Sigma) and images were taken with a fluorescence microscope. The number of migrating cells was quantified by ImageJ software and the IC50 values were calculated using Prism software (Graphpad).

[2] = system: DU145 prostate cancer cell line; experiment: Transwell cell migration assay, DU 145 prostate cancer cell line; format: cell-based; details: DU145, 12.5 μM, 24 h, 8 μm pore (FIG. 2)
Experimental: (§2) MDA-MB-231 (HTB-26, ATCC, Manassas, Va., USA) and MDA-MB-468 (HTB-132, ATCC, Manassas, Va., USA) breast cancer cell lines and DU 145 (HTB-81, ATCC, Manassas, Va., USA) prostate cancer cell line grown in RPMI medium supplement with 10% FBS were starved for 24 hours in medium without FBS. After 24 hours, 5×10^4 cells in FBS free medium were placed in the upper chamber of 24-well Transwell apparatus (CORNING TRANSWELL® polycarbonate membrane inserts, 8 μm pore size) with solvent (DMSO/PEG400) or 12.5 μM Compound 1 as indicated. Medium with FBS and Compound 1 was added to the bottom chamber. Twenty-four hours later the cells from the upper chamber were removed with a cotton swab. Cells that migrated to the lower side of the membrane were stained with Calcein-AM (Sigma) and images were taken with a fluorescence microscope.

[3] = system: MDA-MB-231 breast cancer cells; experiment: Transwell cell migration assay, MDA-MB-231 breast cancer cells; format: cell-based
Experimental: as §2, with “microscope. […]” for “microscope.”

HUVEC cells [4] = experiment: Transwell cell migration assay, HUVEC; format: cell-based; details: Homo sapiens, Endothelial
Excerpt: as §1

D122 (lung-mouse) cells = experiment: Transwell cell migration assay, D122; format: cell-based
Excerpt: as §1

[5] = system: D122-luc (lung-mouse) cells; experiment: Transwell cell migration assay, D122-luc; format: cell-based
Excerpt: as §1

[6] = system: Panc03.27 (pancreatic) cells; experiment: Transwell cell migration assay, Panc03.27; format: cell-based; details: Homo sapiens, PANC-03-27; Panc 03.27, Pancreatic
Excerpt: as §1

4T1 (breast-mouse) cells = experiment: Transwell cell migration assay, 4T1; format: cell-based
Excerpt: as §1

A431 (melanoma) cells = experiment: Transwell cell migration assay, A431; format: cell-based; details: Homo sapiens, A-431
Excerpt: as §1

THP1 monocytes = experiment: Transwell cell migration assay, THP1; format: cell-based; details: Homo sapiens, THP-1; THP1, Monocyte
Excerpt: as §1

HUVEC cells [7] = experiment: HUVEC tube-formation assay; format: cell-based, human; details: 25 μM, 6 h, BME with 50 ng/ml VEGF (FIG. 3)
Experimental: Human umbilical vein endothelial cells (HUVEC) were grown routinely in Endothelial Cell Growth Medium 2 with SupplementMix (PromoCell, Germany) containing 15% fetal bovine serum. For Tube-formation assay, 1×10^4 cells, in the above medium containing 5% fetal bovine serum, were seeded on top of Cultrex reduced growth factor Basement Membrane Extract (BME) (R&D Systems, Minneapolis, Minn.) supplemented with 50 ng/ml VEGF (Prospec, Israel). The cells were treated with either solvent (50% DMSO/50% PEG400), 25 μM compound 1 (PRT7000467), 10 μM LY294004 (Cayman Chemical, Ann Arbor, Mich.) or 3 μM FTY720 (Cayman Chemical, Ann Arbor, Mich.) as indicated. LY294004 is a PI3K inhibitor and FTY720 is a modulator of sphingosine-1-phosphate receptors, both of them served as positive controls. Six hours later the cells were stained with Calcein-AM (Sigma, Israel) and images were taken with a fluorescence microscope.

How did the IC50 [1] turn out when `Cc1cc(C)nc(NS(=O)(=O)c2ccc(NC(=O)/C(=C\c3cccs3)NC(=O)c3cccs3)cc2)n1` [Compound 1] was run?
Its IC50 is 0.2 µM.

What about the “cell migration (Transwell, images)” value [2] of the same compound?
Its value is “inhibits the migration”.

And the IC50 ([3]; Homo sapiens, MDA-MB-231, MDA-MB231, Breast)?
The IC50 was 0.5 µM.

What about the “cell migration (Transwell, images)” value ([3]; MDA-MB-231, 12.5 μM, 24 h, 8 μm pore (FIG. 2)) of the same compound?
The value was “inhibits the migration”.

And the IC50 (HUVEC cells [4])?
Its IC50 is 2.9 µM.

And the IC50 (D122 (lung-mouse) cells)?
Its IC50 is 1.4 µM.

And the IC50 [5]?
The IC50 was 1.6 µM.

And the IC50 [6]?
The IC50 was 1 µM.

And the IC50 (4T1 (breast-mouse) cells)?
Its IC50 is 0.8 µM.

What about the IC50 (A431 (melanoma) cells) of the same compound?
The IC50 was 1.1 µM.

What about the IC50 (THP1 monocytes) of the same compound?
The IC50 was over 30 µM.

What about the “formation of tube-like structure by HUVEC cells” value (HUVEC cells [7]) of the same compound?
The value was “inhibits the formation of tube-like structure”.
